Series [1] has as its target T1, Matrilysin (Homo sapiens, UniProt P09237).
T1 sequence (P09237 whole entry): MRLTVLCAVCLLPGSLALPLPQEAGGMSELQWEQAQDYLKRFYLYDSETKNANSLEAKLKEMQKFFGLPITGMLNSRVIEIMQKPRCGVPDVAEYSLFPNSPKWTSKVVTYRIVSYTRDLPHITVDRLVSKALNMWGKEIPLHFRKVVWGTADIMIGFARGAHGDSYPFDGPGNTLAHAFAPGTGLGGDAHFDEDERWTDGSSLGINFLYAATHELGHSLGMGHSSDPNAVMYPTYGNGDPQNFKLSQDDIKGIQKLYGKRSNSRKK
Kind of series: Inhibition of human recombinant MMP-7 (Leu18 to Lys267 residues) using MOCAc-Pro-Leu-Gly-Leu-A2pr(Dnp)-Ala-Arg-NH2 as fluorogenic substrate preincubated for 15 mins followed by substrate addition by fluorescence based analysis.

For series [2], the target named is 72 kDa type IV collagenase (Homo sapiens, UniProt P08253). Kind of series: Inhibition of human recombinant MMP-2 ( Ile34 to Cys660 residues) using MOCAc-Pro-Leu-Gly-Leu-A2pr(Dnp)-Ala-Arg-NH2 as fluorogenic substrate preincubated for 15 mins followed by substrate addition by fluorescence based analysis.
72 kDa type IV collagenase, sequence (P08253 whole entry): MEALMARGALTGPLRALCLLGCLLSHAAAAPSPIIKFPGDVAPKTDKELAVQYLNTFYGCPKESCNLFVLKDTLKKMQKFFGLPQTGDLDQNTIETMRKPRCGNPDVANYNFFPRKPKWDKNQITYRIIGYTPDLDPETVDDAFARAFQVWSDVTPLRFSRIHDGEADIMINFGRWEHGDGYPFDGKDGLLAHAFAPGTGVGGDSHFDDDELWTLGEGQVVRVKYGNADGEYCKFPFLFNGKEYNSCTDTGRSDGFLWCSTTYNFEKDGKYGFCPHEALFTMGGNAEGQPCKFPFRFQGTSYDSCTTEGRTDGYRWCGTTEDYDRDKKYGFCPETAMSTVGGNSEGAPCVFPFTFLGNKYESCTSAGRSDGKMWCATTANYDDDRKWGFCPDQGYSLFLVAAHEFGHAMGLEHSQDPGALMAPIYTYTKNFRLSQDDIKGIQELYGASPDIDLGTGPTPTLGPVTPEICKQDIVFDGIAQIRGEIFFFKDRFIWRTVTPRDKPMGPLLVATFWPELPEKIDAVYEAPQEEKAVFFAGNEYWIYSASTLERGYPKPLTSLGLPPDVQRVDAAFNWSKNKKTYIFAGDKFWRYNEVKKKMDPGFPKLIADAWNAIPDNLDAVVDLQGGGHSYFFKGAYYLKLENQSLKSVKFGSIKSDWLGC
Series [3] addresses Stromelysin-1 (Homo sapiens, UniProt P08254). Kind of series: Inhibition of human recombinant MMP-3 (Tyr18 to Cys477 residues ) using MOCAc-Arg-Pro-Lys-Pro-Val-Glu-Nva-Trp-Arg-Lys(Dnp)-NH2 as fluorogenic substrate preincubated for 15 mins followed by substrate addition by fluorescence based analysis.
Series [4] deals with Neutrophil collagenase (Homo sapiens, UniProt P22894). Kind of series: Inhibition of human recombinant MMP-8 (Phe21 to Gly467 residues) using MOCAc-Pro-Leu-Gly-Leu-A2pr(Dnp)-Ala-Arg-NH2 as fluorogenic substrate preincubated for 15 mins followed by substrate addition by fluorescence based analysis.
Neutrophil collagenase, sequence (P22894 whole entry): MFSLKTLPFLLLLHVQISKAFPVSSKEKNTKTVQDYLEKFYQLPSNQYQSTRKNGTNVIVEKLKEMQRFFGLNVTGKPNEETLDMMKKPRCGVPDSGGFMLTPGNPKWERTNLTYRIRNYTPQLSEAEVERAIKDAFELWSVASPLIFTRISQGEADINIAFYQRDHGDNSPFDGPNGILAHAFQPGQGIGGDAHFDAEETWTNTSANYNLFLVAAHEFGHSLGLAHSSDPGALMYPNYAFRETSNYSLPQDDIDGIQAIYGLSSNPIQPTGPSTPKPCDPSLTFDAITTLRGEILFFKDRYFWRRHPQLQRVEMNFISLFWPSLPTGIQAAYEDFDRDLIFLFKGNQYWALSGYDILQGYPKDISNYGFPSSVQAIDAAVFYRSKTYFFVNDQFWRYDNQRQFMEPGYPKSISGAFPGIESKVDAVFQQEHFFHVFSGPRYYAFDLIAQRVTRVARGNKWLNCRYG
Series [5] concerns the target Matrix metalloproteinase-9 (Homo sapiens, UniProt P14780). Kind of series: Inhibition of human recombinant MMP-9 (Ala20 to Asp707 residues) using MOCAc-Pro-Leu-Gly-Leu-A2pr(Dnp)-Ala-Arg-NH2 as fluorogenic substrate preincubated for 15 mins followed by substrate addition by fluorescence based analysis.
In series [6] the target is Macrophage metalloelastase (Homo sapiens, UniProt P39900). Kind of series: Inhibition of human recombinant MMP-12 (Leu17 to Cys470 residues) using MOCAc-Pro-Leu-Gly-Leu-A2pr(Dnp)-Ala-Arg-NH2 as fluorogenic substrate preincubated for 15 mins followed by substrate addition by fluorescence based analysis.
Macrophage metalloelastase, sequence (P39900 whole entry): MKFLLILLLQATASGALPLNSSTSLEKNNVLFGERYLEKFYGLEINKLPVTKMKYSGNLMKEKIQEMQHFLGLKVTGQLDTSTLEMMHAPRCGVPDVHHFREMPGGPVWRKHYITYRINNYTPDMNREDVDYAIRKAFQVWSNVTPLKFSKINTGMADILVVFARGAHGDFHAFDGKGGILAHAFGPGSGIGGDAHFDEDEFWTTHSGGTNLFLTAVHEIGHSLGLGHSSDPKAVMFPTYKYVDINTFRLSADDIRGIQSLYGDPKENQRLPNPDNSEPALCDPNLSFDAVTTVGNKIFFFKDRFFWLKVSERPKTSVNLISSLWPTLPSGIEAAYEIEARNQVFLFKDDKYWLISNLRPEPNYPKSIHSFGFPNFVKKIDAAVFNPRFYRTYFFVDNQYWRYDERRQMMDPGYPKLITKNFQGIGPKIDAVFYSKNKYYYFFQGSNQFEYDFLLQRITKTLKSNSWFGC
Series [7] deals with Collagenase 3 (Homo sapiens, UniProt P45452). Kind of series: Inhibition of human recombinant MMP-13 (Leu20 to Cys471 residues) using MOCAc-Pro-Leu-Gly-Leu-A2pr(Dnp)-Ala-Arg-NH2 as fluorogenic substrate preincubated for 15 mins followed by substrate addition by fluorescence based analysis.
The target in series [8] is Matrix metalloproteinase-14 (Homo sapiens, UniProt P50281). Kind of series: Inhibition of human recombinant C-terminal 10-His tagged MMP-14 ( Ala21 to Gly284 residues) using MOCAc-Lys-Pro-Leu-Gly-Leu-A2pr(Dnp)-Ala-Arg-NH2 as fluorogenic substrate preincubated for 15 mins followed by substrate addition by fluorescence based analysis.
For series [9], the target named is T2, Interstitial collagenase (Homo sapiens, UniProt P03956).
T2 sequence (P03956 whole entry): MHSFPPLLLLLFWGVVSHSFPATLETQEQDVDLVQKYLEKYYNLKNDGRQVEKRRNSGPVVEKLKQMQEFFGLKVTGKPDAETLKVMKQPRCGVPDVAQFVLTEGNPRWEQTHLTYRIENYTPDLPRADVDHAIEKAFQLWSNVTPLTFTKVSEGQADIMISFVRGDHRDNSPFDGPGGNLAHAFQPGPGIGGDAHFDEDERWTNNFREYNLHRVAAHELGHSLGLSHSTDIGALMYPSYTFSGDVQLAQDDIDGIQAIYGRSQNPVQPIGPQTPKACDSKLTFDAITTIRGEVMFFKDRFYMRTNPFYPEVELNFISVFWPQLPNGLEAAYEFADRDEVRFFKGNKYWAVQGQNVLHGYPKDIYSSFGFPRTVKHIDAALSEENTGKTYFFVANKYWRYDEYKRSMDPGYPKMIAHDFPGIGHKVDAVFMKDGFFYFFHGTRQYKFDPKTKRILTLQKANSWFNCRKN
Kind of series: Inhibition of human recombinant MMP-1 (Phe20 to Asn469 residue) using MOCAc-Lys-Pro-Leu-Gly-Leu-A2pr(Dnp)-Ala-Arg-NH2 as fluorogenic substrate preincubated for 15 mins followed by substrate addition by fluorescence based analysis.

Series [10] can be described thus: Stability in human liver microsomes at 1 uM incubated for 15 mins by liquid chromatography-mass spectrometry. Type of series: ADME, Microsome. As to conditions: 0.25 h.
Series [11] in a line: Stability in human serum incubated for 4 hrs by liquid chromatography-tandem mass spectrometry. It is filed as ADME, cell-free.
The species entered for series [12] is Homo sapiens. Kind of series: Selectivity index, ratio of IC50 for human recombinant MMP-12 to IC50 for human recombinant MMP-7.
For series [13], the species on record is Homo sapiens. Kind of series: Selectivity index, ratio of IC50 for human recombinant MMP-14 to IC50 for human recombinant MMP-7.

These results are taken from ChEMBL document CHEMBL5104183, “Discovery of Highly Potent and Selective Matrix Metalloproteinase-7 Inhibitors by Hybridizing the S1' Subsite Binder with Short Peptides” (J Med Chem, 2022).

The IC50 is the midpoint of a concentration-inhibition curve.

*1 amine or outer side, *2 acyl side, *3 side chain or, on linkers, in order; H or OH if unused. Where a SMILES comes first, the peptide text is derived from it. [ ]: non-standard residue; d: D form. The star is where a group is joined. Benzenesulfonyl(4-Cl,3-CF3) = O=S(=O)(c1ccc(Cl)c(C(F)(F)F)c1)*; γGlu = O=C(O)[C@H](CCC(=O)[*:2])N[*:1]; β3hP = O=C(O)C[C@@H]1CCCN1

Matrix metalloproteinase-9, sequence (P14780 whole entry): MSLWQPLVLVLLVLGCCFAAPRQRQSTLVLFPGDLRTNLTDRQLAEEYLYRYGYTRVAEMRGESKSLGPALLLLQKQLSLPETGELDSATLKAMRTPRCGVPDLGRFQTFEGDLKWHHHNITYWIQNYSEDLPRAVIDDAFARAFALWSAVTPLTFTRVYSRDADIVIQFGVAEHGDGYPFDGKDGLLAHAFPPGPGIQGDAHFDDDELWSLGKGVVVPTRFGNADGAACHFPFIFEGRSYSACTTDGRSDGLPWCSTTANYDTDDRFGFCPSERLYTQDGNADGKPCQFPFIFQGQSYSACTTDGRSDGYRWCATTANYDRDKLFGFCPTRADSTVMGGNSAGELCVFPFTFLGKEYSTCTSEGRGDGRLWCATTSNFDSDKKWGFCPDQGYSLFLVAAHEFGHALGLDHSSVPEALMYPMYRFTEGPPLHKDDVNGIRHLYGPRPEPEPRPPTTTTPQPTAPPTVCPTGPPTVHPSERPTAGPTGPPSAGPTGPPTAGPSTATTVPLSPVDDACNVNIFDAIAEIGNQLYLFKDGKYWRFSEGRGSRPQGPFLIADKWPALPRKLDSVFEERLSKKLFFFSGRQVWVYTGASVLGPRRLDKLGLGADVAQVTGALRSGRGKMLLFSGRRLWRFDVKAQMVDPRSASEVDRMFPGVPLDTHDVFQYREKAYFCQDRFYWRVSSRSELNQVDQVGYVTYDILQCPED
Stromelysin-1, sequence (P08254 whole entry): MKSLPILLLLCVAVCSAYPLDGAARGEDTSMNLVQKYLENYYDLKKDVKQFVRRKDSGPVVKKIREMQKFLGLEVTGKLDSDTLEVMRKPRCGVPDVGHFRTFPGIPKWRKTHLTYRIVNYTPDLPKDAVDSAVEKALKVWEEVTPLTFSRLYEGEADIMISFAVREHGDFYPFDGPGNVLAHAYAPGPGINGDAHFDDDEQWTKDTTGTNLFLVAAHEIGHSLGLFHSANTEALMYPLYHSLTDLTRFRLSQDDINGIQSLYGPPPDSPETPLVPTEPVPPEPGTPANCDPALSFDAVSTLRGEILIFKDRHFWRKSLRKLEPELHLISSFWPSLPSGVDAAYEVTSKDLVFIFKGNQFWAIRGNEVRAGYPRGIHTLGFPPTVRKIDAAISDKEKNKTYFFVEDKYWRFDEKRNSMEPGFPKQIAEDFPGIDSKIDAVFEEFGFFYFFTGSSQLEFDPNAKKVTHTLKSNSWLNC

In the case of `CSCC[C@H](NC(=O)[C@H](CC(C)C)NC(=O)[C@H](C)NC(=O)C[C@H](NS(=O)(=O)c1ccc(Cl)c(C(F)(F)F)c1)C(=O)O)C(N)=O`, the IC50 in series [1] was determined as 4.7 µM.
Take `CC(C)C[C@H](NC(=O)[C@H](C)NC(=O)CC[C@H](NS(=O)(=O)c1ccc(Cl)c(C(F)(F)F)c1)C(=O)O)C(=O)N[C@@H](C)C(N)=O`: the half-inhibitory concentration (IC50) in series [1] worked out at 1.7 µM.
With `CSCC[C@H](NC(=O)[C@H](CC(C)C)NC(=O)[C@H](C)NC(=O)CC[C@H](NS(=O)(=O)c1ccc(Cl)c(C(F)(F)F)c1)C(=O)O)C(N)=O`, the IC50 was 0.44 µM in [1]; more than 100 µM in series [2]; more than 100 µM in [3]; more than 100 µM in [4]; more than 100 µM in series [5]; 40 µM in series [6]. In addition, the IC50 in [7] and in series [8] was more than 100 µM each time.
Regarding `CC(C)C[C@H](NC(=O)CNC(=O)CC[C@H](NS(=O)(=O)c1ccc(Cl)c(C(F)(F)F)c1)C(=O)O)C(=O)N[C@H](C(=O)N[C@@H](C)C(N)=O)C(C)C` ({Benzenesulfonyl(4-Cl,3-CF3)-γGlu}-GLVA-NH2), the IC50 in series [1] is 0.016 µM; in series [2], 33 µM; in series [9], more than 100 µM; in series [3] it was more than 100 µM; in series [4] it was more than 100 µM; in series [5], more than 100 µM. In addition, the IC50 in series [6] was 12 µM; in [7], more than 100 µM; in [8], 11 µM. Also, the Stability result in [10] and in series [11] was “Stable” throughout.
In the case of `CSCC[C@H](NC(=O)[C@H](Cc1ccccc1)NC(=O)CNC(=O)CC[C@H](NS(=O)(=O)c1ccc(Cl)c(C(F)(F)F)c1)C(=O)O)C(N)=O`, the IC50 in [1] amounted to 0.11 µM.
On the same count and under the same terms, for `CSCC[C@H](NC(=O)[C@H](C)NC(=O)[C@H](C)NC(=O)CC[C@H](NS(=O)(=O)c1ccc(Cl)c(C(F)(F)F)c1)C(=O)O)C(N)=O` the value was 6.7 µM; for `CSCC[C@H](NC(=O)[C@H](CC(C)C)NC(=O)[C@H](CO)NC(=O)CC[C@H](NS(=O)(=O)c1ccc(Cl)c(C(F)(F)F)c1)C(=O)O)C(N)=O`, 5.7 µM.
Regarding `CC(C)C[C@H](NC(=O)CNC(=O)CC[C@H](NS(=O)(=O)c1ccc(Cl)c(C(F)(F)F)c1)C(=O)O)C(=O)N[C@H](C(N)=O)C(C)C`, the IC50 in series [1] is 0.056 µM; in series [2], 45 µM; in [9], more than 100 µM; in series [3] it was more than 100 µM; in [4], more than 100 µM; in series [5] it was more than 100 µM. Moreover, the results for the half-inhibitory concentration (IC50) in [6], in [7] and in series [8] were 28 µM, more than 100 µM and 17 µM, respectively.
As to `CSCC[C@H](NC(=O)[C@H](CC(C)C)NC(=O)[C@H](CCC(N)=O)NC(=O)CC[C@H](NS(=O)(=O)c1ccc(Cl)c(C(F)(F)F)c1)C(=O)O)C(N)=O`, the IC50 in [1] worked out at 1.3 µM.
Consider `CSCC[C@H](NC(=O)[C@H](CC(C)C)NC(=O)CNC(=O)CC[C@H](NS(=O)(=O)c1ccc(Cl)c(C(F)(F)F)c1)C(=O)O)C(N)=O`, for which the IC50 in series [1] is 0.12 µM; in series [2] it was 73 µM; in series [3], more than 100 µM; in [4], more than 100 µM; in series [5], more than 100 µM; in [6], 20 µM. For the same compound, the IC50 in [7] was more than 100 µM; in series [8], 25 µM.
In the case of `CSCC[C@H](NC(=O)[C@H](CC(C)C)NC(=O)[C@H](CC(N)=O)NC(=O)CC[C@H](NS(=O)(=O)c1ccc(Cl)c(C(F)(F)F)c1)C(=O)O)C(N)=O`, the IC50 in series [1] is 7.5 µM.
Take `O=C(O)[C@H](CCc1ccccc1)NS(=O)(=O)c1ccc(Cl)c(C(F)(F)F)c1`: the IC50 in series [1] is 6.1 µM; in series [2], more than 100 µM; in [9], more than 100 µM; in series [3], more than 100 µM; in series [4], more than 100 µM; in [5] it was more than 100 µM. The IC50 in [6], in series [7] and in series [8] was more than 100 µM each time.
For `CSCC[C@H](NC(=O)[C@H](CC(C)C)NC(=O)[C@H](CC(C)C)NC(=O)CC[C@H](NS(=O)(=O)c1ccc(Cl)c(C(F)(F)F)c1)C(=O)O)C(N)=O`, the IC50 in series [1] worked out at 0.78 µM.
As for `CC(C)C[C@H](NC(=O)CNC(=O)CC[C@H](NS(=O)(=O)c1ccc(Cl)c(C(F)(F)F)c1)C(=O)O)C(=O)N[C@H](C(=O)N1CCC[C@H]1C(N)=O)C(C)C` ({Benzenesulfonyl(4-Cl,3-CF3)-γGlu}-GLVP-NH2), the IC50 in series [1] worked out at 0.019 µM.
On to `CC(C)C[C@H](NC(=O)CNC(=O)CC[C@H](NS(=O)(=O)c1ccc(Cl)c(C(F)(F)F)c1)C(=O)O)C(=O)N[C@H](C(=O)N1CCC[C@H]1CC(N)=O)C(C)C` ({Benzenesulfonyl(4-Cl,3-CF3)-γGlu}-GLV[β3hP]-NH2), for which the IC50 is 0.01 µM in [1]; 11 µM in series [2]; more than 100 µM in series [3]; 59 µM in [4]; more than 100 µM in series [5]; 2.9 µM in series [6]. The values for the IC50 in series [7] and in series [8] were more than 100 µM and 0.45 µM, respectively. Also, the Stability entry in series [10] and in [11] was “Stable” throughout. Further, the Ratio IC50 in series [12] is 290; in series [13], 45.
